Earlier results on 4 molecules are cited in patent publication US20180136238A1 (priority 2016, published 2018).

Like-named read-outs stand apart in the source and are kept apart here.

For data set [1] the following is noted: in vivo.
[2] abbreviates: blood, equilibrium of bicarbonate complex with protein bound uranyl ions.

With `[CH3][Hg][CH3]` [dimethyl mercury], the LD50 dose in data set [1] is reported as 0.015 mg/kg.

Regarding `[Hg+2].[S-2]` [mercuric sulfide], the LD50 dose in data set [1] is reported as ~100,000.0 mg/kg.

Consider `[U]` [uranium], for which, under setting [2], the “uranium in blood bicarbonate-formed” value is reported as 60% and the “uranium in blood protein-formed” value was 40%. For the same molecule, for the setting “other studies”, the “uranium in blood associated with red blood cells” value is 20%, the “uranium in blood present in the inorganic compartment of plasma” value is on record as 74% and the “uranium in blood protein-formed” value was 32%.

For arsenic, the LD50 dose in data set [1] was 14 mg/kg.
